Experimental data as given in patent publication US20090214466A1 (priority 2006, published 2009).

Key:
Conditions in all cases: human, in vivo
migraine symptoms [1] = system: migraine symptoms
[2] = system: symptoms of post-laminectomy syndrome
migraine symptoms [3] = system: migraine symptoms; remark: listed apart in the source

Substance: etanercept [ENBREL® etanercept]
- frequency and severity of migraine symptoms (migraine symptoms [1]): Reduction in the frequency and severity of migraine symptoms was reported

Substance: infliximab [REMICADE® infliximab]
- symptoms of post-laminectomy syndrome [2]: reduced symptoms

Substance: botulinum toxin type A [BOTOX® botulinum toxin type A]
- frequency, severity, and duration of migraine symptoms (migraine symptoms [3]): Reduction in the frequency, severity, and duration of migraine symptoms was reported
